From patent US9757363B2, “SNS-595 and methods of using the same” (Sunesis Pharmaceuticals, Inc., priority 2004, dated 2017) come the findings set out here.

Like-named read-outs stand apart in the source and are kept apart here.

The data set in a line: Pharmacokinetics of SNS-595 in cancer patients. Type of data set: in vivo, human. As to conditions: for AUC(0-t) / AUC(0-inf) / MRT inf / Cmax: human, intravenous. The method, then: SNS-595 was administered to enrolled patients for up to six cycles. A cycle is defined as a three-week period, with SNS-595 administered on the first day of each cycle (day 0), followed by at least 21 days of observation. SNS-595 was administered to cohorts of at least 3 patients and dose escalation occurred by sequential cohort.

Setting [1] is: 48 mg/m2, plasma, dose 48 mg/m^2.
The mark [2] stands for this setting: 60 mg/m2, plasma, dose 60 mg/m^2.

The term AUC(0-t) denotes exposure summed from dosing to a finite time, without extrapolation to infinity. Low readings indicate less exposure, high ones more exposure. In general, Cmax refers to the peak of the concentration-time curve. With `CN[C@H]1CN(c2ccc3c(=O)c(C(=O)O)cn(-c4nccs4)c3n2)C[C@@H]1OC` [SNS-595, (+)-1,4-dihydro-7-[(3S,4S)-3-methoxy-4-(methylamino)-1-pyrrolidinyl]-4-oxo-1-(2-thiazoyl)-1,8-naphthyridine-3-carboxylic acid], the “relation of dose to AUC^oo” value (dose escalation by sequential cohort) is on record as “linear”. The AUC(0-t) (3 mg/m2, plasma, dose 3 mg/m^2) amounted to 0.75 µg·h/mL; the AUC(0-t) (6 mg/m2, plasma, dose 6 mg/m^2) was 2.4 µg·h/mL; the exposure AUC(0-t) (12 mg/m2, plasma, dose 12 mg/m^2) is 5.4 µg·h/mL; the area under the curve AUC(0-t) (24 mg/m2, plasma, dose 24 mg/m^2) was 11.1 µg·h/mL; the AUC(0-t) under setting [1] was found to be 21.1 µg·h/mL; the AUC(0-t) under setting [2] came to 28.1 µg·h/mL. For the same molecule, the AUC(0-inf) is, setting by setting: (6 mg/m2, plasma, dose 6 mg/m^2, read-out: AUCINF_obs) 2.99 µg·h/mL; (48 mg/m2, plasma, dose 48 mg/m^2, read-out: AUCINF_obs) 27.3 µg·h/mL; (60 mg/m2, plasma, dose 60 mg/m^2, read-out: AUCINF_obs) 33.6 µg·h/mL. The MRT inf worked out at 29.1 h (6 mg/m2, plasma, dose 6 mg/m^2, read-out: MRTINF_obs); 23.7 h (12 mg/m2, plasma, dose 12 mg/m^2, read-out: MRTINF_obs); 21.6 h (24 mg/m2, plasma, dose 24 mg/m^2, read-out: MRTINF_obs); 28.9 h (48 mg/m2, plasma, dose 48 mg/m^2, read-out: MRTINF_obs); 23.7 h (60 mg/m2, plasma, dose 60 mg/m^2, read-out: MRTINF_obs). This molecule also registered a maximum concentration (Cmax) under setting [1] of 2.87 µg/mL and a Cmax under setting [2] of 4.54 µg/mL. Further, the CO turned out to be 152.25 ng/mL (plasma, dose 3 mg/m^2); 379.69 ng/mL (plasma, dose 6 mg/m^2); 2888.66 ng/mL (plasma, dose 12 mg/m^2); 2924.46 ng/mL (plasma, dose 24 mg/m^2); 1984.52 ng/mL (plasma, dose 48 mg/m^2); 4797.47 ng/mL (plasma, dose 60 mg/m^2). Where the note is “plasma, dose 48 mg/m^2”, the Vss_obs worked out at 1.46 L/kg.
